Legend:
SENP1 [1] = test: SENP1 mRNA levels by quantitative real-time PCR in LNCaP cells after androgen/cytokine treatment; assay type: cell-based, human; details: for SENP1 expression enhanced (mRNA, QRT-PCR) / Increase in SENP1 levels: R1881 20 nM; for Increase in SENP1 levels: IL-6 25 ng/mL, or both; for SENP1 levels on cytokine treatment: 25 ng/mL, 24 or 48 hr
Procedure: (§1) LNCaP, PC-3, and DU145 cells were maintained in RPMI 1640 media containing 10% fetal bovine serum and 1% penicillin/streptomycin. The RWPE2 were maintained in Keratinocyte-Serum Free medium supplemented with 5 ng/ml human recombinant EGF and 0.05 mg/ml bovine pituitary extract. For hormone/cytokine treatment, the maintenance media was replaced with phenol red-free RPMI 1640 media containing 10% charcoal-stripped bovine serum and 1% penicillin/streptomycin.
(§2) Cells (LNCaP and/or PC-3) were prepared for RNA isolation using the RNA-Bee Reagent (Tel-Test Inc, Friendswood, Tex.) according to manufacture's instructions with stock samples diluted to the appropriate concentrations with the DEPC-treated water.
(§3) The TaqMan Master Mix Reagents (Applied Biosystems, Branchburg, N.J.) were utilized for the quantitative real-time PCR (QRT-PCR) reaction. Primers for either SENP1 ([…]; forward: SEQ. ID. NO. 5: 5′-TTGGCCAGAGTGCAAATGG-3′ and reverse: SEQ. ID. NO. 6 5′-[…]-3′) or the housekeeping 18S rRNA were utilized. SENP1 RNA levels were calculated using the TaqMan ABI PRISM 7900 Sequence Detector System (PE Applied Biosystems).

PSA = PSA ELISA assay, secreted PSA of LNCaP cells; assay type: cell-based, human; details: for Increase in PSA levels as compared to control: LNCaP, R1881 20 nM, IL-6 25 ng/mL, or both, 24 hr
Procedure: as §1
(§4) PC-3 and LNCaP cells were grown in 24-well plates. Cells were transfected with the oligos (40 pmol/well) or siRNA plasmid (200 ng) for one (for PC-3) or three times within 12 hour intervals (for LNcaP) using lipfectamine 2000 (Invitrogen). PSA ELISA or Luciferase assays were used for analysis.
For assessment of PSA, the PSA ELISA assay kit was purchased from MP Biomedicals (Orangeburg, N.Y.) and performed according to manufacturer's instruction. Using a microtiter plate reader, the ng/mL concentration of the cell samples was calculated from the standard curve.

SENP1 [2] = test: SENP1 mRNA levels by quantitative real-time PCR in PC-3 cells after androgen/cytokine treatment; assay type: cell-based; details: 24 hr
Procedure: as §1, §2, §3

AR = test: ARE-luciferase reporter assay of AR-dependent transcription with co-transfected SENP1; assay type: cell-based; details: PC-3 cells, in the presence of bicalutamide
Procedure: as §4
Luciferase reporter gene assays were used to examine whether SENP1 could affect AR-dependent transcription. […] This effect was dependent on the presence of AR ligand, R1881. […] Even at very low levels of cotransfected DNA, SENP1 induced AR transactivation. […] As the antagonists of androgen can also bind to the AR, the inventors tested whether SENP1 could act on antagonist-bound AR. […] SENP1 and SENP1 mutant were expressed at similar levels (FIG. 9E) and SENP1 and SENP2 were also expressed similarly (FIG. 9F).

cyclin D1 promoter = test: Cyclin D1 promoter CD1 (-1745/+134) luciferase reporter assay in PC-3 cells; assay type: cell-based; details: TSA for 12 hrs at 24 hr after transfection
Procedure: At 24 hr after transfection, cells were treated different dosage TSA as indicated for 12 hrs and then luciferase activity were determined. All luciferase activity was normalized to individually determined β-gal activity. […] After 48 hr of transfection, the Luciferase activity was measured. All luciferase activity was normalized to individually determined β-gal activity. […] All luciferase activity was normalized to individually determined β-gal activity.
EGFP-SENP1 and EGFP-SENP1mutant (C603A) were prepared by standard cloning and PCR based mutagenesis. CD1 (−1745/+134), CD1 (−963/+134), CD1 (−66/+134), and, CD1 (−66/+134) mutant-driven luciferase plasmids were prepared by PCR cloning strategy (Albanese et al., 1995; Tetsu et al., 1999). […]
To further confirm the role of SENP1 in cyclin D1 transcription, we performed a cyclin D1 promoter-driven luciferase reporter assay (FIG. 16A) as described by Cheng et al, 2004. CD1 (−1745/+134), which corresponded to the original fragment of cyclin D1 5′ sequence cloned from the PRAD1 breakpoint, was transfected into PC-3 cells and its response to SENP1 was measured.

C[C@]1(O)CC[C@H]2[C@@H]3CCC4=CC(=O)CCC4=C3C=C[C@@]21C [R1881] was tested, and the “SENP1 levels with increasing R1881 concentration” value (SENP1 [1]; 24 hr) was “increasing R1881 concentration elevates SENP1 levels”, the “SENP1 expression enhanced (mRNA, QRT-PCR)” value (SENP1 [1]; 24 hr) was 5 fold and the “SENP1 expression enhanced (mRNA, QRT-PCR)” value (SENP1 [1]; 48 hr) was 7 fold. The “Increase in SENP1 levels” value (SENP1 [1]; 24 hr) was roughly 5 fold, the “Concentration of secreted PSA protein in the cultural medium” value (PSA; LNCaP cells, R1881) was “increased” and the “Increase in PSA levels as compared to control” value (PSA) was 5.6 fold. The “SENP1 expression on R1881 treatment” value (SENP1 [2]; R1881 30 nM) was “unaltered”.

With “IL-6: cytokine that promotes activation of AR-dependent transcription via MAPK and JAK/STAT pathways” the “SENP1 levels on cytokine treatment” value (SENP1 [1]) was “enhanced”, the “Increase in SENP1 levels” value (SENP1 [1]; 24 hr) was roughly 5 fold and the “Increase in PSA levels as compared to control” value (PSA) was 2.2 fold. The “SENP1 levels on cytokine treatment” value (SENP1 [2]; IL-6 25 ng/mL) was “unchanged”.

For CC(O)(CS(=O)(=O)c1ccc(F)cc1)C(=O)Nc1ccc(C#N)c(C(F)(F)F)c1 (centres unmarked) [bicalutamide], the “Effect of SENP1 on AR-dependent transcription with antagonist-bound AR” value (AR) was “no effect”.

In the case of CC(/C=C/C(=O)NO)=C\[C@@H](C)C(=O)c1ccc(N(C)C)cc1 [TSA], the “SENP1 induction of cyclin D1 promoter activity” value (cyclin D1 promoter) is reported as “decreased by TSA in a dose-dependent manner”.

TNF-α was tested, and the “SENP1 levels on cytokine treatment” value (SENP1 [1]) was “not”.

Source: patent US7579152B2, “SENP1 as a marker of cancer development and target for cancer therapy” (Board of Regents, the University of Texas System, priority 2004, dated 2009)
